Reference: US20220202801A1, “USE OF COMPOUND IN PREPARATION OF DRUG FOR TREATING ATHEROSCLEROSIS” (GenEros Biopharma Ltd., priority 2019, published 2022)

Assays:
[1] = test system: CD68; test: Immunohistochemistry of aortic wall, CD68; type: in vivo, mice; conditions: for aorta (CD68) signal expression in blood vessels: IHC-P×400, single animal micrograph; for CD68 average optical density: aortic wall
Source text: Methods: SPF grade C57BL/6 ApoE −/−model mice were provided by Guangdong Medical Experimental Animal Center, laboratory animal production license No. SOCK (Guangdong) 2013-0002. Laboratory animal quality certificate number: 44007200048196). Mice were half male and half female, aged 8 to 12 weeks, and 72 animals in total. After four weeks of housing in a SPF-level animal facility, animals with less body weights were disposed. A total of 64 animals were randomly divided into 8 groups, 8 in each group, fed with 10% high-fat food, and received with different treatments. Animals were observed and administered with the medicines by gavage once daily. The body weights were measured once a week and continued for 58 days. […] The test sample was dissolved in dimethyl sulfoxide solution and prepared with 30% PEG300.
After blood collection, the animals were sacrificed, and the aortic arch together with the heart and thoracic aorta were fixed with neutral formaldehyde and subject to pathological examination. The abdominal aorta was collected and quick-frozen in liquid nitrogen, and stored at −80° C.
c) Immunohistochemistry: The thoracic aorta was sliced and detected by immunohistochemistry for the expression of CD68, intercellular adhesion molecule-1 (ICAM-1), and vascular cell adhesion Molecule-1 (VCAM-1).

[2] = test system: atherosclerosis model induced by high-fat diet in ApoE knockout mice; test: Ratio of atherosclerotic plaque area to total inner wall area of the aorta (En-Face, oil red; Example 2); type: in vivo
Source text: Methods: A total of 130 SPF grade C57BL/6 ApoE −/− model male mice aged 8 weeks were purchased from Charles River Laboratories (Beijing, China) (animal license number: SCXK (Beijing) 2016-0001, animal qualification certificate No.: 11400700331337). After one week of acclimatization in a SPF-grade animal facility, the animals with less weights were discarded and the rest was randomly divided into 11 groups, with 8 animals in each group. Except for the healthy control group, the rest were fed with 10% high-fat food (the first day of the high-fat diet was recorded as D1). Starting from the 8th week of the high-fat diet, each group of animals was orally given solvents or corresponding drugs, and the volume of administration was 10 ml/kg, once a day for 8 weeks. Animals were observed and administered by gavage once a day and the body weight were measured once a week for 56 days. […] The store solution of the test samples was dissolved in dimethyl sulfoxide solution and prepared with 30% PEG300.
Immediately after blood was taken from the heart, it was perfused through the left ventricle with 20 ml of normal saline. After bloodletting, the heart and aorta (from the aortic arch to the iliac artery) were isolated. The isolated artery was cut longitudinally from the aortic arch to the iliac artery, fixed in 4% paraformaldehyde for 30 minutes, synchronized with 60% isopropanol for 10 minutes, stained in 60% oil red for 30 minutes, and washed by 60% isopropanol 3 times, 5 minutes each time. Finally, the colored aorta was washed with deionized water and photographed. The proportion of the red plaque area was measured by Image Pro Plus 6.0 (Media Cybernetics, MD, US). The heart samples were fixed in 4% paraformaldehyde solution overnight and then placed in sucrose solution for dehydration. Then, it was embedded with OCT (Sakura, Japan) under a stereo microscope and made into 7 μm frozen sections. After HE staining, the slices were used for routine pathological examination. The outflow tract images were collected under an optical microscope at 4* magnification, and 4*, 10*, 20* and 40* magnification eyepieces were used for high-quality morphological observation. The detection standard referred to the histological classification standard of human atherosclerosis disease.
Evaluate the effect of different therapeutic drugs by the ratio of the area of atherosclerotic plaque to the total area of the inner wall of the aortic vessel (En-Face)
We adopted the widely accepted standard for the severity of arteriosclerosis in animal models, and analyzed the area of all plaques on the inner wall of the aorta. […] FIGS. 46A and 46B are histograms of the ratios of plaque area on the inner wall of the aorta in each treatment group. The values in FIGS. 46A and 46B are the ratios of plaques to the total area of the inner wall in each group, and the error is standard error±SEM. The statistical significance analysis is as follows: ***P<0.001 compared with the normal control group; #P<0.05 compared with the vehicle group; ##P<0.01, ###P<0.001, compared with the vehicle group through one-way ANOVA Dunnett's test; & represents P<0.05, compared with the vehicle group by t test.

| SMILES | aorta (CD68) signal expression in blood vessels ([1]; 2 mg/kg) | aorta (CD68) signal expression in blood vessels ([1]; 5 mg/kg) | aorta (CD68) signal expression in blood vessels ([1]; 10 mg/kg) | CD68 average optical density ([1]; 2 mg/kg gavage QD) | CD68 average optical density ([1]; 5 mg/kg gavage QD) | CD68 average optical density ([1]; 10 mg/kg gavage QD) | aorta (CD68) signal expression in blood vessels ([1]; 1 mg/kg) | CD68 average optical density ([1]; 1 mg/kg gavage QD) | Mean of Plaque Ratio (plaque area to total inner wall area of aorta) ([2]; 2 mpk PO QD 8 weeks, high-fat diet) | symptoms of atherosclerosis under therapeutic intervention (mainly plaque area ratio) ([2]; different doses, Example 2) |
| --- | --- | --- | --- | --- | --- | --- | --- | --- | --- | --- |
| O=c1[nH]c2ccccc2n1C1CCN(CCCC(c2ccc(F)cc2)c2ccc(F)cc2)CC1 [Sample A] | low to medium | low to medium | low to medium | 2.78 ± 2.01 ×10^−2 | 1.39 ± 0.67 ×10^−2 | 1.86 ± 1.60 ×10^−2 | – | – | – | – |
| O=C(N/N=C/c1coc2ccccc2c1=O)c1cccnc1 [Sample B] | low to medium | low to medium | – | 2.22 ± 0.99 ×10^−2 | 2.83 ± 1.40 ×10^−2 | – | low to medium | 1.85 ± 1.51 ×10^−2 | 11.22% | significantly alleviate the symptoms of atherosclerosis |
